Source: ChEMBL document CHEMBL4418283, “Fluorinated lysyl oxidase-like 2 inhibitors and uses thereof” (2017)
Blank lines part the entries; values can stand above or below the molecule they belong to. Calls of active or inactive are those of the source. The calls are words filed in the database; no cut-off is given here.

What was measured:
Mus musculus [1] = experiment: Antifibrotic activity in C57BL/6 mouse model of bleomycin-induced lung fibrosis assessed as reduction in cross linked collagen level in lung at 60 mg/kg, po pre-treated 1 hr to 1 day before bleomycin injection and measured after 14 to 28 days by Masson's trichrome staining based assay; format: functional, organism-based
Mus musculus [2] = experiment: Antifibrotic activity in C57BL/6 mouse model of bleomycin-induced lung fibrosis assessed as reduction in alpha smooth muscle actin level in lung at 60 mg/kg, po pre-treated 1 hr to 1 day before bleomycin injection and measured after 14 to 28 days by immunohistochemistry analysis; format: functional, organism-based
Mus musculus [3] = experiment: Antifibrotic activity in C57BL/6 mouse model of bleomycin-induced lung fibrosis assessed as reduction in hydroxyproline in lung homogenates at 60 mg/kg, po pre-treated 1 hr to 1 day before bleomycin injection and measured after 14 to 28 days by chloramine T and Erlich's solution based assay; format: functional, organism-based
Mus musculus [4] = experiment: Antifibrotic activity in C57BL/6 mouse model of bleomycin-induced lung fibrosis assessed as reduction in cross linked collagen level in lung at 60 mg/kg, po pre-treated 1 hr to 1 day before bleomycin injection and measured after 14 to 28 days by Picro-Sirius staining based assay; format: functional, organism-based
Mus musculus [5] = experiment: Antifibrotic activity in C57BL/6 mouse model of bleomycin-induced lung fibrosis assessed as reduction in collagen level in lung at 60 mg/kg, po pre-treated 1 hr to 1 day before bleomycin injection and measured after 14 to 28 days by hydroxyproline assay; format: functional, organism-based
Mus musculus [6] = experiment: Antifibrotic activity in COL4A3 deficient mouse A1port model of kidney fibrosis assessed as effect on MMP10 gene expression at 30 mg/kg, po dosed during 2 to 3 days of age and measured at 7 to 9 weeks of age by RT-PCR analysis; format: functional, organism-based
Mus musculus [7] = experiment: Antifibrotic activity in C57BL/6 mouse model of bleomycin-induced lung fibrosis assessed as reduction in hydroxyproline in lung homogenates at 60 mg/kg, po treated 7 to 14 days after bleomycin injection and measured after 14 to 28 days by chloramine T and Erlich's solution based assay; format: functional, organism-based
Mus musculus [8] = experiment: Antifibrotic activity in COL4A3 deficient mouse A1port model of kidney fibrosis assessed as effect on TGFbeta1 gene expression at 30 mg/kg, po dosed during 2 to 3 days of age and measured at 7 to 9 weeks of age by RT-PCR analysis; format: functional, organism-based
Mus musculus [9] = experiment: Antifibrotic activity in C57BL/6 mouse model of bleomycin-induced lung fibrosis assessed as reduction in cross linked collagen level in lung at 60 mg/kg, po treated 7 to 14 days after bleomycin injection and measured after 14 to 28 days by Picro-Sirius staining based assay; format: functional, organism-based
Mus musculus [10] = experiment: Antifibrotic activity in C57BL/6 mouse model of bleomycin-induced lung fibrosis assessed as reduction in alpha smooth muscle actin level in lung at 60 mg/kg, po treated 7 to 14 days after bleomycin injection and measured after 14 to 28 days by immunohistochemistry analysis; format: functional, organism-based
Mus musculus [11] = experiment: Antifibrotic activity in COL4A3 deficient mouse A1port model of kidney fibrosis assessed as effect on collagen 1 protein expression at 30 mg/kg, po dosed during 2 to 3 days of age and measured at 7 to 9 weeks of age by immunohistochemical analysis; format: functional, organism-based
Mus musculus [12] = experiment: Antifibrotic activity in COL4A3 deficient mouse A1port model of kidney fibrosis assessed as effect on collagen-1 protein expression at 30 mg/kg, po dosed during 2 to 3 days of age and measured at 7 to 9 weeks of age by immunohistochemical analysis; format: functional, organism-based
Mus musculus [13] = experiment: Antifibrotic activity in COL4A3 deficient mouse A1port model of kidney fibrosis assessed as effect on albinuria level at 30 mg/kg, po dosed during 2 to 3 days of age and measured at 7 to 9 weeks of age; format: functional, organism-based
Mus musculus [14] = experiment: Antifibrotic activity in COL4A3 deficient mouse A1port model of kidney fibrosis assessed as effect on laminin a5 protein expression at 30 mg/kg, po dosed during 2 to 3 days of age and measured at 7 to 9 weeks of age by immunohistochemical analysis; format: functional, organism-based
Mus musculus [15] = experiment: Antifibrotic activity in COL4A3 deficient mouse A1port model of kidney fibrosis assessed as effect on MMP9 gene expression at 30 mg/kg, po dosed during 2 to 3 days of age and measured at 7 to 9 weeks of age by RT-PCR analysis; format: functional, organism-based
Mus musculus [16] = experiment: Antifibrotic activity in COL4A3 deficient mouse A1port model of kidney fibrosis assessed as effect on IL6 gene expression at 30 mg/kg, po dosed during 2 to 3 days of age and measured at 7 to 9 weeks of age by RT-PCR analysis; format: functional, organism-based
Mus musculus [17] = experiment: Antifibrotic activity in COL4A3 deficient mouse A1port model of kidney fibrosis assessed as effect on WT1 protein expression at 30 mg/kg, po dosed during 2 to 3 days of age and measured at 7 to 9 weeks of age by immunohistochemical analysis; format: functional, organism-based
Mus musculus [18] = experiment: Antifibrotic activity in COL4A3 deficient mouse A1port model of kidney fibrosis assessed as effect on MCP1 gene expression at 30 mg/kg, po dosed during 2 to 3 days of age and measured at 7 to 9 weeks of age by RT-PCR analysis; format: functional, organism-based
Mus musculus [19] = experiment: Antifibrotic activity in COL4A3 deficient mouse A1port model of kidney fibrosis assessed as effect on MMP12 gene expression at 30 mg/kg, po dosed during 2 to 3 days of age and measured at 7 to 9 weeks of age by RT-PCR analysis; format: functional, organism-based
Mus musculus [20] = experiment: Antifibrotic activity in COL4A3 deficient mouse A1port model of kidney fibrosis assessed as effect on smooth muscle actin protein expression at 30 mg/kg, po dosed during 2 to 3 days of age and measured at 7 to 9 weeks of age by immunohistochemical analysis; format: functional, organism-based
Mus musculus [21] = experiment: Antifibrotic activity in C57BL/6 mouse model of bleomycin-induced lung fibrosis assessed as reduction in cross linked collagen level in lung at 60 mg/kg, po treated 7 to 14 days after bleomycin injection and measured after 14 to 28 days by Masson's trichrome staining based assay; format: functional, organism-based
Mus musculus [22] = experiment: Antifibrotic activity in COL4A3 deficient mouse A1port model of kidney fibrosis assessed as effect on MMP2 gene expression at 30 mg/kg, po dosed during 2 to 3 days of age and measured at 7 to 9 weeks of age by RT-PCR analysis; format: functional, organism-based
Mus musculus [23] = experiment: Antifibrotic activity in COL4A3 deficient mouse A1port model of kidney fibrosis assessed as effect on fibronectin protein expression at 30 mg/kg, po dosed during 2 to 3 days of age and measured at 7 to 9 weeks of age by immunohistochemical analysis; format: functional, organism-based
Mus musculus [24] = experiment: Antifibrotic activity in COL4A3 deficient mouse A1port model of kidney fibrosis assessed as effect on BUN level at 30 mg/kg, po dosed during 2 to 3 days of age and measured at 7 to 9 weeks of age; format: functional, organism-based
Mus musculus [25] = experiment: Antifibrotic activity in COL4A3 deficient mouse A1port model of kidney fibrosis assessed as effect on CTGF gene expression at 30 mg/kg, po dosed during 2 to 3 days of age and measured at 7 to 9 weeks of age by RT-PCR analysis; format: functional, organism-based
Mus musculus [26] = experiment: Antifibrotic activity in COL4A3 deficient mouse A1port model of kidney fibrosis assessed as effect on CD45 protein expression at 30 mg/kg, po dosed during 2 to 3 days of age and measured at 7 to 9 weeks of age by immunohistochemical analysis; format: functional, organism-based
Mus musculus [27] = experiment: Antifibrotic activity in C57BL/6 mouse model of bleomycin-induced lung fibrosis assessed as reduction in collagen level in lung at 60 mg/kg, po treated 7 to 14 days after bleomycin injection and measured after 14 to 28 days by hydroxyproline assay; format: functional, organism-based
Mus musculus [28] = experiment: Antifibrotic activity in COL4A3 deficient mouse A1port model of kidney fibrosis assessed as effect on integrin alpha8 protein expression at 30 mg/kg, po dosed during 2 to 3 days of age and measured at 7 to 9 weeks of age by immunohistochemical analysis; format: functional, organism-based
Lysyl oxidase homolog 2 = target: T1, Lysyl oxidase homolog 2 (Homo sapiens, UniProt Q9Y4K0); experiment: Inhibition of human LOXL2 expressed in CHO cells assessed as reduction in amine oxidase activity incubated for 2 hrs by Amplex red based fluorescence assay; format: cell-based
T1 sequence (Q9Y4K0 whole entry): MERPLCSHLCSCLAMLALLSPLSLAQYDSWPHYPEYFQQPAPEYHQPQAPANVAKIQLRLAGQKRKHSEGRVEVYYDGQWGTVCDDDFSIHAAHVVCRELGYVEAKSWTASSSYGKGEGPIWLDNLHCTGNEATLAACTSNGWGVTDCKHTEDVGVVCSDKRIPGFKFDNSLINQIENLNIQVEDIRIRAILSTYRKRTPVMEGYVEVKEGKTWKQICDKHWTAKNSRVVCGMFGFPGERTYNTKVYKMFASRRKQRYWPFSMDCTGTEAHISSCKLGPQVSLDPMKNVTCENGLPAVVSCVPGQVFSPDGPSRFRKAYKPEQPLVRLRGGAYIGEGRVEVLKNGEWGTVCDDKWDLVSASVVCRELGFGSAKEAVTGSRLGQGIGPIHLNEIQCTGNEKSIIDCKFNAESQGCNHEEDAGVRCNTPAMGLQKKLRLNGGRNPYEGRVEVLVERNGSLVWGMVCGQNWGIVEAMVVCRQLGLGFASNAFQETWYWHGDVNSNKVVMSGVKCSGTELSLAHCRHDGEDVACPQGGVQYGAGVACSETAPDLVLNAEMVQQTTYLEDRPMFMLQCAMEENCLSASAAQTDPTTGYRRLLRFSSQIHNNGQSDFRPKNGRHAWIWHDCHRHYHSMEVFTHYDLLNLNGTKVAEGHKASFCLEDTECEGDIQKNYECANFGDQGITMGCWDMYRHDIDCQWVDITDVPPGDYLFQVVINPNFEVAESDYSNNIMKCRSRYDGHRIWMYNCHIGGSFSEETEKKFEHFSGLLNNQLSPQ

Structure (SMILES): NCc1cc(Oc2cccc(C(=O)Nc3ccccc3)c2)nc(C(F)(F)F)c1
Activity (Mus musculus [1]): Active | Activity (Mus musculus [2]): Active | Activity (Mus musculus [3]): Active | Activity (Mus musculus [4]): Active | Activity (Mus musculus [5]): Active

Structure (SMILES): NCc1cc(Oc2cccc(C(=O)N3C[C@@H](O)[C@H](F)C3)c2)nc(C(F)(F)F)c1
Activity (Mus musculus [6]): Active | Activity (Mus musculus [1]): Active | Activity (Mus musculus [7]): Active | Activity (Mus musculus [8]): Active | Activity (Mus musculus [9]): Active | Activity (Mus musculus [10]): Active | Activity (Mus musculus [11]): Active | Activity (Mus musculus [12]): Active | Activity (Mus musculus [13]): Active | Activity (Mus musculus [14]): Active | Activity (Mus musculus [2]): Active | Activity (Mus musculus [15]): Active | Activity (Mus musculus [16]): Active | Activity (Mus musculus [17]): Active | Activity (Mus musculus [18]): Active | Activity (Mus musculus [19]): Active | Activity (Mus musculus [20]): Active | Activity (Mus musculus [21]): Active | Activity (Mus musculus [3]): Active | Activity (Mus musculus [22]): Active | Activity (Mus musculus [23]): Active | Activity (Mus musculus [4]): Active | Activity (Mus musculus [24]): Active | Activity (Mus musculus [25]): Active | Activity (Mus musculus [26]): Active | Activity (Mus musculus [27]): Active | Activity (Mus musculus [28]): Active | Activity (Mus musculus [5]): Active

Structure (SMILES): CS(=O)(=O)CCNC(=O)c1cccc(Oc2cc(CN)cc(C(F)(F)F)n2)c1
Activity (Mus musculus [1]): Active | Activity (Mus musculus [2]): Active | Activity (Mus musculus [3]): Active | Activity (Mus musculus [4]): Active | Activity (Mus musculus [5]): Active

Structure (SMILES): NCc1cc(Oc2cccc(C(=O)N3C[C@H](O)[C@@H](F)C3)c2)nc(C(F)(F)F)c1 (relative stereo)
Activity (Mus musculus [1]): Active | Activity (Mus musculus [7]): Active | Activity (Mus musculus [9]): Active | Activity (Mus musculus [10]): Active | Activity (Mus musculus [2]): Active | Activity (Mus musculus [21]): Active | Activity (Mus musculus [3]): Active | Activity (Mus musculus [4]): Active | Activity (Mus musculus [27]): Active | Activity (Mus musculus [5]): Active

IC50 (Lysyl oxidase homolog 2): 300 to 1000 nM
Structure (SMILES): NCc1cc(O[C@@H]2CCCN(C(=O)Nc3ccccc3)C2)nc(C(F)(F)F)c1

IC50 (Lysyl oxidase homolog 2): < 300 nM
Structure (SMILES): CC(C)(C)OC(=O)N1CCN(C(=O)Cn2ccc3c(Oc4cc(CN)cc(C(F)(F)F)n4)cccc32)CC1

Structure (SMILES): NCc1cc(Oc2cccc(C(=O)NCCn3cnnn3)c2)nc(C(F)(F)F)c1
Activity (Mus musculus [1]): Active | Activity (Mus musculus [2]): Active | Activity (Mus musculus [3]): Active | Activity (Mus musculus [4]): Active | Activity (Mus musculus [5]): Active

Structure (SMILES): NCc1cc(Oc2cccc3c2CCC(=O)N3)nc(C(F)(F)F)c1
Activity (Mus musculus [1]): Active | Activity (Mus musculus [2]): Active | Activity (Mus musculus [3]): Active | Activity (Mus musculus [4]): Active | Activity (Mus musculus [5]): Active

Structure (SMILES): NCc1cc(Oc2cccc(C(=O)N3C[C@H](O)[C@@H](F)C3)c2)nc(C(F)(F)F)c1 (racemic)
Activity (Mus musculus [1]): Active | Activity (Mus musculus [7]): Active | Activity (Mus musculus [9]): Active | Activity (Mus musculus [10]): Active | Activity (Mus musculus [2]): Active | Activity (Mus musculus [21]): Active | Activity (Mus musculus [3]): Active | Activity (Mus musculus [4]): Active | Activity (Mus musculus [27]): Active | Activity (Mus musculus [5]): Active
